Reference: US11634479B2, “Immunoassay for collagen type VI” (Nordic Bioscience A/S, priority 2015, dated 2023)

Key:
[1] = BALLETS phase III clinical study: adverse event profile in subgroups of baseline endotrophin; format: in vivo, subjects with type 2 diabetes on stable insulin therapy
From the text: Testing Strategies) study was a phase III, randomized, double-blind, parallel-group, placebo and active comparator-controlled clinical study to determine the efficacy and safety of six months' treatment of balaglitazone or pioglitazone in subjects with type 2 diabetes on stable insulin therapy. The baseline demographics, CONSORT diagram as well as efficacy and safety data have previously been published (Henriksen, 2011). In the current study we used the per protocol population of the BALLETS study, which consisted of 299 subjects spread evenly over four groups (placebo, two doses of balaglitazone, and one dose of piogliatazone) as previously described (Henriksen, 2011), all with baseline and up to six follow-up parameters related to blood sugar control and Pro-C6 determinations under therapy.
The analysis included subjects from the per protocol population having a baseline measurement of serum Pro-C6. Subjects were grouped into one of three tertiles based on their baseline Pro-C6 value. Tertile 1 included subjects with baseline serum Pro-C6 of 6.2 ng/mL or below; tertile 2 had baseline serum Pro-C6 of 6.3 ng/mL to 7.7 ng/mL, and tertile 3 had baseline serum Pro-C6 of 7.8 ng/mL or above. Baseline characteristics between the three subgroups were compared by analysis of variance (ANOVA), and comparison of the proportion of genders in each tertile was compared by Fisher's exact test.
Lower leg edema, when measured as volume increase due to water displacement, was correlated with baseline serum endotrophin tertiles. Glitazone therapy led to increased lower leg volume in the lower and middle tertile, while there were no differences between treatment and placebo groups in the upper tertile (FIG. 12A-12C). There were no significant differences in the occurrence of AEs or SAEs in the three different treatment groups when stratified according to endotrophin levels. The difference between the SAEs in Table 10 and the lower leg oedema reported in FIGS. 12A-12C is a function of the lower leg volume being a quantitative measure and the reporting of oedemas being a patient reported output (FIGS. 10A-10C).

[2] = system: around 10 kD bands in human serum and amniotic fluid; assay: Western blot of human serum and amniotic fluid; format: binding; conditions: FIG. 2B
Chain of around 10 kD bands in human serum and amniotic fluid (P12111 3112-3177 limits assumed): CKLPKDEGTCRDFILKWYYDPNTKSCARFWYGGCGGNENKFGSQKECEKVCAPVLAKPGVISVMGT
Description: Native reactivity of the chosen antibody was assessed using human serum pool and human amniotic fluid pool.

[3] = Tertile 1 baseline endotrophin, Balaglitazone 10 mg, n = 27
[4] = Tertile 1 baseline endotrophin, Balaglitazone 20 mg, n = 22
[5] = Tertile 2 baseline endotrophin, Balaglitazone 10 mg, n = 21
[6] = Tertile 2 baseline endotrophin, Balaglitazone 20 mg, n = 21
[7] = Tertile 3 baseline endotrophin, Balaglitazone 10 mg, n = 25
[8] = Tertile 3 baseline endotrophin, Balaglitazone 20 mg, n = 25
[9] = Tertile 1 baseline endotrophin, Pioglitazone 45 mg, n = 24
[10] = Tertile 2 baseline endotrophin, Pioglitazone 45 mg, n = 29
[11] = Tertile 3 baseline endotrophin, Pioglitazone 45 mg, n = 31

## Cn1c(COc2ccc(CC3SC(=O)NC3=O)cc2)nc2ccccc2c1=O (stereo not drawn) [Balaglitazone, balaglitazone]
[1]; [3]
  All AEs, E: 38
  All AEs, N (%): 20 (74%) N (%)
  Serious AEs, E: 1
  Serious AEs, N (%): 1 (4%) N (%)
  Severe AEs: Cardiac ischaemia, E: 0
  Severe AEs: Cardiac ischaemia, N (%): 0 (0%) N (%)
  Severe AEs: Heart failure, E: 0
  Severe AEs: Heart failure, N (%): 0 (0%) N (%)
  Severe AEs: Peripheral oedema, E: 2
  Severe AEs: Peripheral oedema, N (%): 2 (7%) N (%)
  Total severe AEs, E: 2
  Total severe AEs, N (%): 2 (7%) N (%)
[1]; [4]
  All AEs, E: 33
  All AEs, N (%): 17 (77%) N (%)
  Serious AEs, E: 1
  Serious AEs, N (%): 1 (5%) N (%)
  Severe AEs: Cardiac ischaemia, E: 2
  Severe AEs: Cardiac ischaemia, N (%): 2 (9%) N (%)
  Severe AEs: Heart failure, E: 0
  Severe AEs: Heart failure, N (%): 0 (0%) N (%)
  Severe AEs: Peripheral oedema, E: 2
  Severe AEs: Peripheral oedema, N (%): 2 (9%) N (%)
  Total severe AEs, E: 4
  Total severe AEs, N (%): 4 (18%) N (%)
[1]; [5]
  All AEs, E: 35
  All AEs, N (%): 17 (81%) N (%)
  Serious AEs, E: 1
  Serious AEs, N (%): 1 (5%) N (%)
  Severe AEs: Cardiac ischaemia, E: 1
  Severe AEs: Cardiac ischaemia, N (%): 1 (5%) N (%)
  Severe AEs: Heart failure, E: 0
  Severe AEs: Heart failure, N (%): 0 (0%) N (%)
  Severe AEs: Peripheral oedema, E: 3
  Severe AEs: Peripheral oedema, N (%): 3 (14%) N (%)
  Total severe AEs, E: 4
  Total severe AEs, N (%): 4 (19%) N (%)
[1]; [6]
  All AEs, E: 36
  All AEs, N (%): 15 (71%) N (%)
  Serious AEs, E: 0
  Serious AEs, N (%): 0 (0%) N (%)
  Severe AEs: Cardiac ischaemia, E: 0
  Severe AEs: Cardiac ischaemia, N (%): 0 (0%) N (%)
  Severe AEs: Heart failure, E: 0
  Severe AEs: Heart failure, N (%): 0 (0%) N (%)
  Severe AEs: Peripheral oedema, E: 2
  Severe AEs: Peripheral oedema, N (%): 2 (10%) N (%)
  Total severe AEs, E: 2
  Total severe AEs, N (%): 2 (10%) N (%)
[1]; [7]
  All AEs, E: 55
  All AEs, N (%): 20 (60%) N (%)
  Serious AEs, E: 1
  Serious AEs, N (%): 1 (4%) N (%)
  Severe AEs: Cardiac ischaemia, E: 0
  Severe AEs: Cardiac ischaemia, N (%): 0 (0%) N (%)
  Severe AEs: Heart failure, E: 0
  Severe AEs: Heart failure, N (%): 0 (0%) N (%)
  Severe AEs: Peripheral oedema, E: 1
  Severe AEs: Peripheral oedema, N (%): 1 (8%) N (%)
  Total severe AEs, E: 1
  Total severe AEs, N (%): 1 (8%) N (%)
[1]; [8]
  All AEs, E: 43
  All AEs, N (%): 20 (60%) N (%)
  Serious AEs, E: 6
  Serious AEs, N (%): 6 (24%) N (%)
  Severe AEs: Cardiac ischaemia, E: 1
  Severe AEs: Cardiac ischaemia, N (%): 1 (4%) N (%)
  Severe AEs: Heart failure, E: 0
  Severe AEs: Heart failure, N (%): 0 (0%) N (%)
  Severe AEs: Peripheral oedema, E: 1
  Severe AEs: Peripheral oedema, N (%): 1 (4%) N (%)
  Total severe AEs, E: 2
  Total severe AEs, N (%): 2 (8%) N (%)

## CCc1ccc(CCOc2ccc(CC3SC(=O)NC3=O)cc2)nc1 (stereo not drawn) [Pioglitazone, pioglitazone]
[1]; [9]
  All AEs, E: 45
  All AEs, N (%): 19 (79%) N (%)
  Serious AEs, E: 1
  Serious AEs, N (%): 1 (4%) N (%)
  Severe AEs: Cardiac ischaemia, E: 0
  Severe AEs: Cardiac ischaemia, N (%): 0 (0%) N (%)
  Severe AEs: Heart failure, E: 0
  Severe AEs: Heart failure, N (%): 0 (0%) N (%)
  Severe AEs: Peripheral oedema, E: 5
  Severe AEs: Peripheral oedema, N (%): 5 (21%) N (%)
  Total severe AEs, E: 5
  Total severe AEs, N (%): 5 (21%) N (%)
[1]; [10]
  All AEs, N (%): 17 (59%)^ N (%)
  Serious AEs, E: 3
  Serious AEs, N (%): 2 (6%) N (%)
  Severe AEs: Cardiac ischaemia, E: 1
  Severe AEs: Cardiac ischaemia, N (%): 1 (3%) N (%)
  Severe AEs: Heart failure, E: 0
  Severe AEs: Heart failure, N (%): 0 (0%) N (%)
  Severe AEs: Peripheral oedema, E: 5
  Severe AEs: Peripheral oedema, N (%): 5 (17%) N (%)
  Total severe AEs, E: 6
  Total severe AEs, N (%): 5 (17%) N (%)
[1]; [11]
  All AEs, N (%): 25 (81%)^ N (%)
  Serious AEs, E: 6
  Serious AEs, N (%): 4 (13%) N (%)
  Severe AEs: Cardiac ischaemia, E: 4
  Severe AEs: Cardiac ischaemia, N (%): 3 (10%) N (%)
  Severe AEs: Heart failure, E: 1
  Severe AEs: Heart failure, N (%): 1 (3%) N (%)
  Severe AEs: Peripheral oedema, E: 2
  Severe AEs: Peripheral oedema, N (%): 2 (6%) N (%)
  Total severe AEs, E: 7
  Total severe AEs, N (%): 6 (19%) N (%)

B1: 10A3: mouse IgG1/kappa monoclonal antibody against the last 10 amino acids of C-terminal COL6A3 (…); heavy chain SEQ ID NO:5, light chain SEQ ID NO:9 (antibody)
heavy: EVQLQQSGPVMVKPGTSVKTSCKASGYTFTDFNMNWVKQSHGKSLEWIGAINPHNGATSYNQKFSGKATLTVDKSSSTAYMELNSLTSDDSAVYYCARWGNGKNSWGQGTTLTVSSAKTTPPSVYPLAPGSAAQTNSMVTLGCLVKGYFPEPVTVTWNSGSLSSGVHTFPAVLQSDLYTLSSSVTVPSSTWPSETVTCNVAHPASSTKVDKKIVPRDCGCKPCICTVPEVSSVFIFPPKPKDVLTITLTPKVTCVVVDISKDDPEVQFSWFVDDVEVHTAQTQPREEQFNSTFRSVSELPIMHQDWLNGKEFKCRVNSAAFPAPIEKTISKTKGRPKAPQVYTIPPPKEQMAKDKVSLTCMITDFFPEDITVEWQWNGQPAENYKNTQPIMDTDGSYFVYSKLNVQKSNWEAGNTFTCSVLHEGLHNHHTEKSLSHSPGK
light: DVVMTQTPLSLPVNLGDQASISCRSSQRIVHSNGITFLEWYLQKPGQSPKLLIYRVSNRFSGVPDRFSGSGSGTDFTLKISRVEAEDLGLYYCFQGSHVPLTFGAGTRLELKRADAAPTVSIFPPSSEQLTSGGASVVCFLNNFYPKDINVKWKIDGSERQNGVLNSWTDQDSKDSTYSMSSTLTLTKDEYERHNSYTCEATHKTSTSPIVKSFNRNEC
modifications: Heavy chain sequence of mouse IgG1 isotype of monoclonal antibody 10A3; Light chain sequence of mouse Kappa isotype of monoclonal antibody 10A3
[2]
  western blot signal in the presence of the standard peptide: completely blocked
[2]; human serum and amniotic fluid
  bands recognized in western blot: around 10 kD
